Experimental findings from paper PMC12434521, “Characterization of Next-Generation Inhibitors for the Inward-Rectifier Potassium Channel Kir2.1: Discovery of VU6080824” (ACS Medicinal Chemistry Letters, 2025) are described below.

Several values for one entry are separate records, joined by “and”; a condition that tells them apart may be missing. Equal values may be shown once. Read-outs that look alike come from different tables or passages of the source.

Holding throughout (assay type): cell-based
One experiment deals with T1, Kir2.3 (Homo sapiens, UniProt P48050).
T1 construct: expressed in transfected cells
T1 sequence (P48050 1-445): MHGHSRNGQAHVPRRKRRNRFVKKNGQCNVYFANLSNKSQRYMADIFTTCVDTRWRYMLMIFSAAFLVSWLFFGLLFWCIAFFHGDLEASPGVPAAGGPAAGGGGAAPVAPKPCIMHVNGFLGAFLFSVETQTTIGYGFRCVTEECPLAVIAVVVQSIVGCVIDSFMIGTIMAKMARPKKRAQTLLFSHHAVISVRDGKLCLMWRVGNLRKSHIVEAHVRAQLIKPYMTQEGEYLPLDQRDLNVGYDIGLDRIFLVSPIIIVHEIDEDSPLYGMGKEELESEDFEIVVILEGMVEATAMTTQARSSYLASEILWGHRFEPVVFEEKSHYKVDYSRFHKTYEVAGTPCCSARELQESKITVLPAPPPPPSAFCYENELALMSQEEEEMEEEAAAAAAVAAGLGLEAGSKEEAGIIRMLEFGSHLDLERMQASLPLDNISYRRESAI
The experiment can be described thus: Kir2.3 manual patch clamp (MPC). The protocol: (§1) Manual Patch Claim Assay Experimental Conditions
(§2) Whole-cell patch-clamp electrophysiology was used to record K ir2.1 currents from a stably transfected monoclonal T-Rex-HEK-293 cell line with a tetracycline-inducible promoter expressing human Kir2.1, as described previously1 cultured in a 5% CO2 incubator at 37°C. Kir2.1 expression was induced by overnight treatment with 1 µg/mL tetracycline. Cells were dissociated using 0.25% Trypsin-EDTA and seeded onto 12 mm circular coverslips (Electron Microscopy Sciences, PA, USA) for same-day whole-cell patch-clamp recordings. Kir2.1 currents were recorded at room temperature using an AxoPatch 200B amplifier with Clampex 10.7 software (Molecular Devices, USA). The voltage-clamp protocol consisted of a 1-s step to -120 mV from a -80 mV holding potential, followed by a 2-s ramp to +40 mV, repeated every 10 s. Data were sampled at 5 kHz and filtered at 1 kHz. Patch pipettes, pulled from 1.5 mm OD thin-walled capillaries (Warner Instruments, MA, USA) using a Sutter P-1000 puller (Sutter Instrument, CA, USA), had resistances of 2–3 MΩ when filled with intracellular solution containing (mM): 135 KCl, 10 HEPES, 1 EGTA, 2 MgCl2, 2 Na2ATP (pH 7.35, adjusted with KOH). The extracellular solution contained (mM): 135 NaCl, 5 KCl, 2 CaCl2, 1 MgCl2, 5 Glucose, 10 HEPES, 10 Sucrose (pH 7.35, adjusted with NaOH). After establishing stable baseline Kir2.1 currents, cells were perfused with compounds at concentrations of 0.03–30 µM until response saturation (within minutes).
(§3) Recordings concluded with a 2 mM Ba2+ solution to isolate Ba2+-sensitive currents, with compound responses expressed as fractions of this current. Current amplitudes at the -120 mV step were analyzed using Clampfit 11.2 (Molecular Devices). IC50 values were calculated by fitting the Hill equation to concentration-response curves (CRCs) using variable -slope nonlinear regression in GraphPad Prism 10.4 (GraphPad Software).
(§4) MPC experiments for Kir2.2 and Kir2.3 were conducted in an analogous fashion.1

The target in experiment [1] is T2, human Kir2.1 (Homo sapiens, UniProt P63252).
T2 construct: expressed in transfected cells
T2 sequence (P63252 1-427): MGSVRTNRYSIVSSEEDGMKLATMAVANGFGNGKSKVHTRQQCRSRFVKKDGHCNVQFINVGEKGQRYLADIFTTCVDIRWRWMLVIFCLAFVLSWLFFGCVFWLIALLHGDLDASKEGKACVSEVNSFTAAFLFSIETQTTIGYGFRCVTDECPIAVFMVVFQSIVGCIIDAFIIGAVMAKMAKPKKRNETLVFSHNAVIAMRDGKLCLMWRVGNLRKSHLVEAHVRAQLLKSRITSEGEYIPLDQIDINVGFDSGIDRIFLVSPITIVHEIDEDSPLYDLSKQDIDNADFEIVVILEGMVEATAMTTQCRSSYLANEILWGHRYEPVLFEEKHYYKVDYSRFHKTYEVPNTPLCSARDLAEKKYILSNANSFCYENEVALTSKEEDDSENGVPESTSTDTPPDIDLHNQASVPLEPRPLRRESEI
Briefly: Kir2.1 manual patch clamp (MPC) assay. Particulars: for Manual patch clamp Emax / Emax: % inhibition of Ba2+-sensitive current at highest tested concentration (3–30 μM); for IC50: pH 7.4, -120 mV, normalized to 2 mM Ba2+ block, top concentration 10 μM (ML133 30 μM, 5t 3 μM). Here is the method:
as §1, §2, §3, §4
In general terms: The patch-clamp technique gives a direct electrical read-out from membranes.

The target in experiment [2] is T2, human Kir2.1. The experiment can be described thus: Kir2.1 thallium flux assay. To be noted: for Thallium Flux Efficacy (% Inhibition) / Emax: efficacy from 4PL fit, relative to ML133; for Emax: read-out: Thallium Flux Efficacy (% Inhibition). The protocol:
Thallium Flux Assay Experimental Conditions
The Tl+ flux assays were conducted as previously described with modifications optimized for Kir2.1 cell line as described below.1
Briefly, stable T-REx-HEK-293 cells expressing human K ir2.1 were cultured in DMEM growth medium (Catalog #11965-092, Gibco, Billings, MT) containing 10% heat-inactivated FBS (Catalog #16140, Gibco), 100 U/mL PenStrep, 5 μg/mL Blasticidin S, and 250 μg/mL Hygromycin.
The day prior to the experiment, cells at ~90% confluency were resuspended in plating media, which consisted of the same components as the growth media, except that heat-inactivated FBS was replaced with dialyzed FBS (Catalog #26400, Gibco). Tetracycline was added to the plating media to achieve a final concentration of 1 μg/ml to induce hKir2.1 expression. Cells were then counted and plated at 15,000 cells/well in black-walled, amine- or PDL- coated, 384-well plates at 20 μl/well (Corning, Corning, NY). On the day of experiment, the media was removed from the cell plate and replaced with 20 μl/well of Tl+-sensitive dye loading solution containing 2.5 μg/ml Thallos-AM (Catalog #11000-050, ION Biosciences, San Marcos, TX) in assay buffer using a Multidrop Combi dispenser (Thermo Fisher Scientific, Walkham, MA). Cell plates loaded with dye solution were incubated for 1 hour at room temperature. Following incubation, the cell plate was washed with HBSS assay buffer containing 20 mM HEPES using a BioTek ELx 405 TS plate washer (Agilent, Santa Clara, CA), leaving 20 μl of assay buffer in each well. The cell plate was then transferred to a Panoptic kinetic imaging plate reader (WaveFront Biosciences, Franklin, TN) for imaging at 1 Hz, 482/35 nm excitation and 536/40 nm emission for 10 seconds. Following this, 20 μl/well of HBSS assay buffer containing test compounds at 2-fold over their final concentrations were added and imaging continued for another eight minutes, after which 10 μl/well of chloride-free Tl+ stimulus solution was added (Catalog #11000-050, ION Biosciences). The final Tl2SO4 concentration in cell plate post-Tl+ stimulus solution addition was 0.25 mM. Images were collected for an additional two minutes. A ten-point concentration series from 30 μM to 2 nM with a 1:3 dilution factor was generated using an Echo liquid handler 650 (Labcyte, San Jose, CA). Final DMSO concentration, 0.3% (v/v) in the assay was constant across all compound concentrations.
The initial slopes of the Tl+-induced fluorescence changes were fit to a four-parameter logistic equation using our in-house software Waveguide to determine potency and efficacy values. […]
Bauer, J. A.; Days, E. L.; Lindsley, C. […]

The mark [3] stands for this setting: T-REx-HEK-293 cells expressing human Kir2.1, 4PL fit, top concentration 30 μM, read-out: Thallium Flux Potency IC50.

For the molecule `[2H]C([2H])([2H])Oc1ccc(CNCc2ccc(-c3cccc(OC)c3)cc2)cc1` [Compound 9], the “Kir2.1/Kir2.3 Selectivity (MPC)” value at Kir2.3 was found to be 1.8 fold. Also, the “Manual patch clamp Emax” value at human Kir2.1 [1] (pH 7.4) is on record as 99%. In addition, the “Thallium Flux Efficacy (% Inhibition)” value on human Kir2.1 [2] came out at 100%.

With `[2H]C([2H])([2H])Oc1cccc(-c2ccc(CNCc3ccc(OC)cc3)cc2)c1` [Compound 11], the “Kir2.1/Kir2.3 Selectivity (MPC)” value at Kir2.3 is 1.3 fold. Further, the “Manual patch clamp Emax” value at human Kir2.1 [1] (pH 7.4) amounted to 99%. Also, the “Thallium Flux Efficacy (% Inhibition)” value on human Kir2.1 [2] is 100%.

Take `COc1ccc(CNCc2ccc(-c3ccccc3)cc2)cc1` [Compound 5k]: the figures for the Emax at human Kir2.1 [1] (pH 7.4) and on human Kir2.1 [2] were 99% and 101%, respectively. Besides, the “MPC potency relative to ML133” value on human Kir2.1 [1] (pH 7.4) was “equipotent”. The IC50 on human Kir2.1 [1] stood at 1.39 µM; on human Kir2.1 [2] (setting [3]) it was 8.2 µM.

Consider `[2H]C([2H])([2H])Oc1ccc(CNCc2ccc(-c3cccc(OC([2H])([2H])[2H])c3)cc2)cc1` [Compound 13], for which the “Kir2.1/Kir2.3 Selectivity (MPC)” value on Kir2.3 amounted to 2.4 fold. On human Kir2.1 [1] (pH 7.4), the “Manual patch clamp Emax” value is recorded as 99%. Further, on human Kir2.1 [2], the “Thallium Flux Efficacy (% Inhibition)” value was 100%.

`COc1ccc(CNCc2ccc(-c3cccc(OC)c3)cc2)cc1` [Compound 5s, 1-(3′-Methoxy-[1,1’-biphenyl]-4-yl)-N-(4-methoxybenzyl)methanamine]: the IC50 against Kir2.3 is 0.86 µM; at human Kir2.1 [1], 0.35 µM; on human Kir2.1 [2] (setting [3]), 5.9 µM. For the same molecule, the “Kir2.1/Kir2.3 Selectivity (MPC)” value on Kir2.3 is given as 2.5 fold; at Kir2.3 (listed as VU6080824) it was “approximately 2 fold”. Besides, the Emax on human Kir2.1 [1] (pH 7.4) was determined as 100%; on human Kir2.1 [2], 101%. Besides, at human Kir2.1 [1] (pH 7.4), the “Fold more potent than ML133 in MPC” value is recorded as 3–5 fold.

Regarding `[2H]C([2H])([2H])Oc1ccc(CNCc2cccc3ccccc23)cc1` [Compound 7], the figures for the Emax on human Kir2.1 [1] (pH 7.4) and on human Kir2.1 [2] were 82% and 102%, respectively. Further, the values for the IC50 on human Kir2.1 [1] and on human Kir2.1 [2] (setting [3]) were 3.94 µM and 11.1 µM, respectively. Besides, the “Thallium flux potency relative to ML133” value on human Kir2.1 [2] is reported as “equipotent”.

`COc1ccc(CNCc2ccc(-c3cccc(F)c3)cc2)cc1` [Compound 5p]: the values for the Emax on human Kir2.1 [1] (pH 7.4) and at human Kir2.1 [2] were 98% and 99%, respectively. Also, the “Fold more potent than ML133 in MPC” value at human Kir2.1 [1] (pH 7.4) was 3–5 fold. The IC50 on human Kir2.1 [1] came out at 0.3 µM; at human Kir2.1 [2] (setting [3]), 8.1 µM.

For `COc1ccc(CNCc2cccc3ccccc23)cc1` [ML133, N-(4-methoxybenzyl)-1-(naphthalen-1-yl)methanamine, reference compound], the Emax amounted to 99% at human Kir2.1 [1] (pH 7.4) and 101% on human Kir2.1 [2]. Besides, the IC50 on human Kir2.1 [1] was 1.5 µM and 1.51 µM; on human Kir2.1 [2] (setting [3]), 10.1 µM; on human Kir2.1 [2] (mean ± SEM over 9 experimental plates in triplicate, read-out: Thallium flux pIC50 (converted)), 10.5 µM.

For `COc1ccc(CNCc2ccc3c(c2)OC(F)(F)O3)cc1` [Compound 5h], the Emax at human Kir2.1 [1] (pH 7.4) is 92%; at human Kir2.1 [2] it was 99%. The IC50 worked out at 3.03 µM against human Kir2.1 [1] and 11.2 µM at human Kir2.1 [2] (setting [3]). For the same molecule, at human Kir2.1 [2], the “Thallium flux potency relative to ML133” value was “equipotent”.

For `COc1ccc(CNCc2cccc(-c3ccccc3)c2)cc1` [Compound 5j], the Emax on human Kir2.1 [1] (pH 7.4) was found to be 100%; on human Kir2.1 [2], 106%. The “Fold more potent than ML133 in MPC” value on human Kir2.1 [1] (pH 7.4) is reported as 3–5 fold. For the same molecule, the IC50 at human Kir2.1 [1] was 0.39 µM; at human Kir2.1 [2] (setting [3]), 12.8 µM.

For `COc1ccc(CNCc2ccc(-c3cccc(C#N)c3)cc2)cc1` [Compound 5t], the Emax came to 98% at human Kir2.1 [1] (pH 7.4) and 100% on human Kir2.1 [2]. Further, the “Fold more potent than ML133 in MPC” value on human Kir2.1 [1] (pH 7.4) was 3–5 fold. The values for the IC50 on human Kir2.1 [1] and at human Kir2.1 [2] (setting [3]) were 0.48 µM and 4.9 µM, respectively.
